Patent publication US8859580B2 (Boehringer Ingelheim International GmbH, priority 2007, dated 2014)

biological target: T1, 11β-HSD1 (Homo sapiens, UniProt P28845); assay: In vitro inhibition of 11β-HSD1, HTRF detection of cortisol generated from cortisone by human liver microsomes; assay type: biochemical; conditions: 11β-HSD IC50 (nM), 1 hour at 37° C., pH 6.0, NADPH 200 μM, cortisone 80 nM, inhibition relative to carbenoxolone signal
T1 construct: detecting cortisol generated from cortisterone by human liver microsomes; from tissue; host or cells: human liver microsomes
T1 sequence (P28845 whole entry): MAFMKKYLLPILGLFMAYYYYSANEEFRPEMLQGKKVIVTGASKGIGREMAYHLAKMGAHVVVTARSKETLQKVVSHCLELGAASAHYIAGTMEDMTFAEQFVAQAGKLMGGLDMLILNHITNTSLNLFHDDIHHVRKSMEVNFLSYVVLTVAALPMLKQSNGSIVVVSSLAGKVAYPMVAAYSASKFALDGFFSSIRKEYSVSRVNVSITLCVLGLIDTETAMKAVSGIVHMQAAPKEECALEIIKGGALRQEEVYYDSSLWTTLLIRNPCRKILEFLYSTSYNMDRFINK
How it was run: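 Cortisol formed from cortisone by human liver microsomes quantified by competitive HTRF immunoassay (XL665-cortisol, Eu-cryptate anti-cortisol antibody), 2 h detection, Em665/Em615 ratio converted via cortisol calibration curve. Percent inhibition relative to carbenoxolone signal; IC50 from curves.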

In order of falling IC50:
1. CC1(C)[C@H]2Cc3c(O)cccc3[C@]1(C)CCN2C(=O)c1ccncn1 [Example 129, [(2R,6S)-10-Hydroxy-6,11,11-trimethyl-1,2,5,6-tetrahydro-4H-2,6-methano-benzo[d]azocin-3-yl]-pyrimidin-4-yl-methanone]  5850 nM
2. CC1(C)[C@H]2Cc3c(C(=O)O)cccc3[C@]1(C)CCN2C(=O)c1ccc2nc[nH]c2c1 [Example 152, (2R,6S)-3-(3H-Benzoimidazole-5-carbonyl)-6,11,11-trimethyl-1,2,3,4,5,6-hexahydro-2,6-methano-benzo[d]azocine-10-carboxylic acid]  4670 nM
3. Cc1noc(C)c1C(=O)N1CC[C@@]2(C)c3cccc(O)c3C[C@@H]1C2(C)C [Example 121]  4120 nM
4. CC1(C)[C@H]2Cc3c(O)cccc3[C@]1(C)CCN2C(=O)c1ccc(CN2CCCC2)cc1 [Example 120, [(2R,6S)-10-Hydroxy-6,11,11-trimethyl-1,2,5,6-tetrahydro-4H-2,6-methano-benzo[d]azocin-3-yl]-(4-pyrrolidin-1-ylmethyl-phenyl)-methanone]  3840 nM
5. CC1(C)[C@H]2Cc3c(O)cccc3[C@]1(C)CCN2C(=O)c1ccc(C(=O)NCc2ccccc2)cc1 [Example 137, N-Benzyl-4-[(2R,6S)-10-hydroxy-6,11,11-trimethyl-1,2,5,6-tetrahydro-4H-2,6-methano-benzo[d]azocine-3-carbonyl]-benzamide]  3620 nM
6. CC1(C)[C@H]2Cc3c(O)cccc3[C@]1(C)CCN2C(=O)c1ccc(C(=O)Nc2ccccc2)cc1 [Example 135, 4-[(2R,6S)-10-Hydroxy-6,11,11-trimethyl-1,2,5,6-tetrahydro-4H-2,6-methano-benzo[d]azocine-3-carbonyl]-N-phenyl-benzamide]  3520 nM
7. CCNC(=O)c1ccc(C(=O)N2CC[C@@]3(C)c4cccc(O)c4C[C@@H]2C3(C)C)cc1 [Example 138, N-Ethyl-4-[(2R,6S)-10-hydroxy-6,11,11-trimethyl-1,2,5,6-tetrahydro-4H-2,6-methano-benzo[d]azocine-3-carbonyl]-benzamide]  2810 nM
8. CC1(C)[C@H]2Cc3c(O)cccc3[C@]1(C)CCN2C(=O)c1ccncc1Cl [Example 144, (3-Chloro-pyridin-4-yl)-[(2R,6S)-10-hydroxy-6,11,11-trimethyl-1,2,5,6-tetrahydro-4H-2,6-methano-benzo[d]azocin-3-yl]-methanone]  2560 nM
9. CC1(C)[C@H]2Cc3c(O)cccc3[C@]1(C)CCN2C(=O)c1ccc(CN2CCCC2=O)cc1 [Example 130, 1 -{4-[(2R,6S)-10-Hydroxy-6,11,11-trimethyl-1,2,5,6-tetrahydro-4H-2,6-methano-benzo[d]azocine-3-carbonyl]-benzyl}-pyrrolidin-2-one]  1610 nM
10. CC1(C)[C@H]2Cc3c(O)cccc3[C@]1(C)CCN2C(=O)c1cccnc1 [Example 127, [(2R,6S)-10-Hydroxy-6,11,11-trimethyl-1,2,5,6-tetrahydro-4H-2,6-methano-benzo[d]azocin-3-yl]-pyridin-3-yl-methanone]  1470 nM
11. CC1(C)[C@H]2Cc3c(O)cccc3[C@]1(C)CCN2C(=O)c1ccccn1 [Example 128, [(2R,6S)-10-Hydroxy-6,11,11-trimethyl-1,2,5,6-tetrahydro-4H-2,6-methano-benzo[d]azocin-3-yl]-pyridin-2-yl-methanone]  1290 nM
12. CC1(C)[C@H]2Cc3c(O)cccc3[C@]1(C)CCN2C(=O)c1ccncc1 [Example 126, [(2R,6S)-10-Hydroxy-6,11,11-trimethyl-1,2,5,6-tetrahydro-4H-2,6-methano-benzo[d]azocin-3-yl]-pyridin-4-yl-methanone]  1270 nM
13. CC1(C)[C@H]2Cc3c(O)cccc3[C@]1(C)CCN2C(=O)c1ccc(C(=O)N2CCOCC2)cc1 [Example 134, [(2R,6S)-10-Hydroxy-6,11,11-trimethyl-1,2,5,6-tetrahydro-4H-2,6-methano-benzo[d]azocin-3-yl]-[4-(morpholine-4-carbonyl)-phenyl]-methanone]  1230 nM
14. COc1ccc2c(c1)C[C@@H]1N(C(=O)c3ccc4nc[nH]c4c3)CC[C@@]2(C)C1(C)C [Example 147, (3H-Benzoimidazol-5-yl)-[(2S,6R)-9-methoxy-6,11,11-trimethyl-1,2,5,6-tetrahydro-4H-2,6-methano-benzo[d]azocin-3-yl]-methanone]  1010 nM
15. CC1(C)[C@H]2Cc3c(O)cccc3[C@]1(C)CCN2C(=O)c1ccc(CNC(=O)c2ccccc2)cc1 [Example 125, N-{4-[(2R,6S)-10-Hydroxy-6,11,11-trimethyl-1,2,5,6-tetrahydro-4H-2,6-methano-benzo[d]azocine-3-carbonyl]-benzyl}-benzamide]  989 nM
16. CC(=O)NCc1ccc(C(=O)N2CC[C@@]3(C)c4cccc(O)c4C[C@@H]2C3(C)C)cc1 [Example 132, N-{4-[(2R,6S)-10-Hydroxy-6,11,11-trimethyl-1,2,5,6-tetrahydro-4H-2,6-methano-benzo[d]azocine-3-carbonyl]-benzyl}-acetamide]  958 nM
17. CC1(C)[C@H]2Cc3c(O)cccc3[C@]1(C)CCN2C(=O)c1ccc(C(=O)N2CCCC2)cc1 [Example 133, [(2R,6S)-10-Hydroxy-6,11,11-trimethyl-1,2,5,6-tetrahydro-4H-2,6-methano-benzo[d]azocin-3-yl]-[4-(pyrrolidine-1-carbonyl)-phenyl]-methanone]  941 nM
18. COc1cc(C(=O)N2CC[C@@]3(C)c4cccc(O)c4C[C@@H]2C3(C)C)ccc1CN1CCCC1=O [Example 122, 1-{4-[(2R,6S)-10-Hydroxy-6,11,11-trimethyl-1,2,5,6-tetrahydro-4H-2,6-methano-benzo[d]azocine-3-carbonyl]-2-methoxy-benzyl}-pyrrolidin-2-one]  818 nM
19. CC1CN(Cc2ccc(C(=O)N3CC[C@@]4(C)c5cccc(O)c5C[C@@H]3C4(C)C)cc2)CCO1 (some centres unmarked) [Example 142]  689 nM
20. Cc1cc(C(=O)N2CC[C@@]3(C)c4cccc(O)c4C[C@@H]2C3(C)C)nn1C [Example 124, (1,5-Dimethyl-1H-pyrazol-3-yl)-[(2R,6S)-10-hydroxy-6,11,11-trimethyl-1,2,5,6-tetrahydro-4H-2,6-methano-benzo[d]azocin-3-yl]-methanone]  658 nM
21. O=C(c1ccc2nc[nH]c2c1)N1CCC2(c3ccccc3)CC1Cc1ccccc12 (centres unmarked) [Example 148, (3H-Benzoimidazol-5-yl)-(6-phenyl-1,2,5,6-tetrahydro-4H-2,6-methano-benzo[d]azocin-3-yl)-methanone]  556 nM
22. CC1(C)C2Cc3ccc(O)cc3C1(c1ccccc1)CCN2C(=O)c1ccc2nc[nH]c2c1 (centres unmarked) [Example 150, (3H-Benzoimidazol-5-yl)-(8-hydroxy-11,11-dimethyl-6-phenyl-1,2,5,6-tetrahydro-4H-2,6-methano-benzo[d]azocin-3-yl)-methanone]  438 nM
23. C[C@@H]1[C@H]2Cc3ccc(C(=O)O)cc3[C@]1(C)CCN2C(=O)c1ccc2nc[nH]c2c1 [Example 151, (2R,6R,11S)-3-(3H-Benzoimidazole-5-carbonyl)-6,11-dimethyl-1,2,3,4,5,6-hexahydro-2,6-methano-benzo[d]azocine-8-carboxylic acid]  426 nM
24. COc1cccc2c1CC1N(C(=O)c3ccc4nc[nH]c4c3)CCC2C1(C)C (centres unmarked) [Example 146, (3H-Benzoimidazol-5-yl)-(10-methoxy-11,11-dimethyl-1,2,5,6-tetrahydro-4H-2,6-methano-benzo[d]azocin-3-yl)-methanone]  384 nM
25. O=C(c1ccc2nc[nH]c2c1)N1CCC2(c3ccccc3)CC1Cc1ccc(O)cc12 (centres unmarked) [Example 149, (3H-Benzoimidazol-5-yl)-(8-hydroxy-6-phenyl-1,2,5,6-tetrahydro-4H-2,6-methano-benzo[d]azocin-3-yl)-methanone]  374 nM
26. CC1(C)[C@H]2Cc3c(O)cccc3[C@]1(C)CCN2C(=O)c1ccc(Cn2cncn2)cc1 [Example 131, [(2R,6S)-10-Hydroxy-6,11,11-trimethyl-1,2,5,6-tetrahydro-4H-2,6-methano-benzo[d]azocin-3-yl]-(4-[1,2,4]triazol-1-ylmethyl-phenyl)-methanone]  361 nM
27. CC1(C)[C@H]2Cc3c(O)cccc3[C@]1(C)CCN2C(=O)c1ccc(Cn2ccnc2)cc1 [Example 123, [(2R,6S)-10-Hydroxy-6,11,11-trimethyl-1,2,5,6-tetrahydro-4H-2,6-methano-benzo[d]azocin-3-yl]-(4-imidazol-1-ylmethyl-phenyl)-methanone]  297 nM
28. CC12CCN(C(=O)c3ccc4nc[nH]c4c3)C(Cc3cc4c(cc31)OCO4)C2(C)C (centres unmarked) [Example 143, (8,9-Methylenedioxy-6,11,11-trimethyl-1,2,5,6-tetrahydro-4H-2,6-methano-benzo[d]azocin-3-yl)-(3H-benzoimidazol-5-yl)-methanone]  123 nM
29. CC12CCN(C(=O)c3ccc4nc[nH]c4c3)C(Cc3cc(F)ccc31)C2(C)C (centres unmarked) [Example 145, (3H-Benzoimidazol-5-yl)-(9-fluoro-6,11,11-trimethyl-1,2,5,6-tetrahydro-4H-2,6-methano-benzo[d]azocin-3-yl)-methanone]  108 nM
30. Cc1cccc2c1C[C@H]1N(C(=O)c3ccc4nc[nH]c4c3)CC[C@]2(C)C1(C)C [Example 139, (3H-Benzoimidazol-5-yl)-[(2R,6S)-6,10,11,11-tetramethyl-1,2,5,6-tetrahydro-4H-2,6-methano-benzo[d]azocin-3-yl]-methanone]  92 nM
31. CC12CCN(C(=O)c3ccc4nc[nH]c4c3)C(Cc3cc(N)ccc31)C2(C)C (centres unmarked) [Example 141, (9-Amino-6,11,11-trimethyl-1,2,5,6-tetrahydro-4H-2,6-methano-benzo[d]azocin-3-yl)-(3H-benzoimidazol-5-yl)-methanone]  59 nM
32. CC1(C)[C@H]2Cc3c(F)cccc3[C@]1(C)CCN2C(=O)c1ccc2nc[nH]c2c1 [Example 140, (3H-Benzoimidazol-5-yl)-[(2R,6S)-10-fluoro-6,11,11-trimethyl-1,2,5,6-tetrahydro-4H-2,6-methano-benzo[d]azocin-3-yl]-methanone]  48 nM
